The source made the active and inactive calls. The rule behind the calls is not given here.

Series [1] can be described thus: Inhibition of cell growth in human H929R cells at 10 uM incubated for 48 hrs by CCK-8 assay relative to control. Format: functional.
Series [2] deals with T1, Pachytene checkpoint protein 2 homolog (Homo sapiens) (UniProt Q15645).
T1 sequence (whole entry): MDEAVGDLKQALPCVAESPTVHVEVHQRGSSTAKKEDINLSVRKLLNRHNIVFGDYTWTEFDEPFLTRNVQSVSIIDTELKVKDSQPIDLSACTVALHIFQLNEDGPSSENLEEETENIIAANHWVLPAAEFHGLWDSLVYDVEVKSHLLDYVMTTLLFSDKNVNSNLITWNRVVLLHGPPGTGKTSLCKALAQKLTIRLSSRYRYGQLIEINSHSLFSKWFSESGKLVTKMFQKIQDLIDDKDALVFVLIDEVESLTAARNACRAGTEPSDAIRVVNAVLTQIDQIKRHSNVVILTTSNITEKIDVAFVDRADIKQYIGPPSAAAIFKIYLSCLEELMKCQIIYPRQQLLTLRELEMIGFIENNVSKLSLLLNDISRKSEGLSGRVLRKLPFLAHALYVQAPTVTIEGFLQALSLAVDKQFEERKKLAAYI
The series is described as follows: Binding affinity to TRIP13 (unknown origin) by SPR analysis. (In general: Surface plasmon resonance follows binding to a sensor surface in real time, without labels.)

Series [3] is described as follows: Toxicity in immunodeficient nude mouse xenografted with human H929R cells assessed as reduction in body weight at 15 mg/kg, ip administered once daily for 16 days. Format: organism-based. Particulars: in vivo, 384 h, time 16 day. Background: In xenograft studies the graft and the host belong to different species.
The nature of series [4]: Acute toxicity in mouse assessed as reduction in spontaneous activities at 50 mg/kg, ip. The format is organism-based. To be noted: in vivo.
Series [5] is described as follows: Acute toxicity in mouse assessed as kidney injury at 50 mg/kg, ip. Format: organism-based. To be noted: in vivo.
Series [6] is described as follows: Acute toxicity in mouse assessed as liver injury at 50 mg/kg, ip. Format: organism-based. Particulars: in vivo.
A short description of series [7]: Inhibition of cell growth in human OCI-My5 cells incubated for 48 hrs by CCK-8 assay. Particulars: OCI-My5, 48 h. A general note: Formazan colour is commonly taken as a measure of viable cells.
Series [8] can be described thus: Inhibition of cell growth in human H929R cells incubated for 48 hrs by CCK-8 assay.
A short description of series [9]: Inhibition of cell growth in human ARP-1 cells incubated for 48 hrs by CCK-8 assay. To be noted: ARP-1, 48 h.
Series [10] is described as follows: Toxicity in immunodeficient nude mouse xenografted with human H929R cells assessed as reduction in body weight at 25 mg/kg, ip administered once daily for 16 days. The format is organism-based. To be noted: in vivo, 384 h, time 16 day.
Series [11] relates to H929R. The series is described as follows: Inhibition of cell growth in human H929R cells at 10 uM incubated for 48 hrs by CCK-8 assay. The format is functional, cell-based.
For series [12], the system named is H929R. The series is described as follows: Antitumor activity against human H929R cells xenografted in immunodeficient nude mouse assessed as reduction in tumor growth at 15 mg/kg, ip administered once daily for 16 days by vernier caliper method. Particulars: time 16.0 day. Format: functional, organism-based.
The target in series [13] is T2, Pachytene checkpoint protein 2 homolog (Homo sapiens, UniProt Q15645).
T2 sequence (Q15645 whole entry): T1 sequence (whole entry)
As to the kind of experiment: Binding affinity to TRIP13 (unknown origin) assessed as dissociation constant by SPR analysis.

A short description of series [14]: Acute toxicity in mouse assessed as heart injury at 50 mg/kg, ip. Particulars: in vivo. The format is organism-based.
The nature of series [15]: Acute toxicity in mouse assessed as abnormal behaviors at 50 mg/kg, ip. Particulars: in vivo. Format: organism-based.
The nature of series [16]: Inhibition of cell growth in human CD138-positive cells at 20 uM incubated for 48 hrs by CCK-8 assay relative to control. The format is functional.

A word on the inhibition: it is the change of the read-out against control, counted positive when it falls. Take `CN1CCN(C(=O)C2C3C=C(Br)C(O3)C2C(=O)Nc2ccc(Cc3ccncc3)cc2)CC1` (stereo unspecified): testing at 10 µM in series [1] gave an inhibition of 43.1%.
Take `O=C1C2C3CCC(C3)C2C(=O)N1c1ccc(Cc2ccncc2)cc1` (stereo unspecified): in series [1], the inhibition at 10 µM came out at 41.4%. Besides, in [2], the outcome was inactive.
With `O=C(NCCCO)C1CCCCC1C(=O)Nc1ccc(Cc2ccncc2)cc1` (stereo unspecified), at 10 µM the inhibition in [1] was 6.9%.
Take `C[C@@]12C(=O)N(c3ccc(Cc4ccncc4)cc3)C(=O)[C@]1(C)[C@H]1CC[C@@H]2O1.Cl`: the Activity result in series [3] is reported as “Non-Toxic”.
In [1], `CN1CCN(C(=O)C2CCCCC2C(=O)Nc2ccc(Cc3ccncc3)cc2)CC1` (stereo unspecified) showed an inhibition at 10 µM of 17.2%.
On to `C[C@@]12C(=O)OC(=O)[C@]1(C)[C@H]1CC[C@@H]2O1` [CANTHARIDIN], for which the Activity result in series [4], in [5] and in series [6] was “Toxic” throughout. In series [2], the outcome was inactive.
As a reminder, the IC50 is the concentration that gives 50% inhibition. A high value points to weaker potency in that assay. On to `O=C1C2C3C=CC(C4CC34)C2C(=O)N1c1ccc(Cc2ccncc2)cc1` (stereo unspecified), for which 10 µM produced 28.2% inhibition in series [1]. Besides, the figures for the IC50 in series [7], in [8] and in [9] were 5.12 µM, 1.35 µM and 4.13 µM, respectively. In addition, in series [10], the Activity entry is listed as “Non-Toxic”.
As for `CN1CCN(C(=O)C2CCCCC2C(=O)Nc2ccc(Oc3ccncc3)cc2)CC1` (stereo unspecified), the inhibition result with H929R [11] is “Active”.
For the compound `C[C@@]12C(=O)N(c3ccc(Cc4ccncc4)cc3)C(=O)[C@]1(C)[C@H]1CC[C@@H]2O1` [listing 1 of 2 here], the result with H929R [12] was Active.
As to `O=C1C2C3C=C(Br)C(O3)C2C(=O)N1c1ccc(Oc2ccncc2)cc1` (stereo unspecified), the inhibition result in the series on H929R [11] is “Active”.
The term Kd denotes the concentration at which binding is half-saturated. `O=C1C2C3C=C(Br)C(O3)C2C(=O)N1c1ccc(Cc2ccncc2)cc1` (stereo unspecified) gave an inhibition at 10 µM in [1] of 51.7%. The Kd in series [13] came out at 149 µM.
Compound `O=C(NCCCO)C1C2C=CC(O2)C1C(=O)Nc1ccc(Cc2ccncc2)cc1` (stereo unspecified) had an inhibition at 10 µM in series [1] of 21.2%.
In the case of `C[C@@]12C(=O)N(c3ccc(Cc4ccncc4)cc3)C(=O)[C@]1(C)[C@H]1CC[C@@H]2O1` [listing 2 of 2 here], the inhibition at 10 µM in series [1] is 49.3%. Moreover, the Activity entry in [5], in series [6], in [14] and in [15] was “Non-Toxic” in each case. In addition, the IC50 came to 4.32 µM in series [7], 8.47 µM in [8] and 3.18 µM in [9]. The compound further came in with an inhibition at 20 µM in [16] of 57%.
For the compound `CN1CCN(C(=O)C2C3C=CC(O3)C2C(=O)Nc2ccc(Cc3ccncc3)cc2)CC1` (stereo unspecified), in [1], the inhibition at 10 µM amounted to 29.8%.

The record behind these values is ChEMBL document CHEMBL5356972, “Design and synthesis of cantharidin derivative DCZ5418 as a TRIP13 inhibitor with anti-multiple myeloma activity in vitro and in vivo” (Bioorg Med Chem Lett, 2024).
